# Biological target: T1, SOD1^WT (Homo sapiens, UniProt P00441)
# T1 construct: The full-length constructs of SOD1-wild type (aa: 1–145); His-tag (cleaved yes); made in house; host or cells: E. coli BL21 DE3
# Experiment: Analytical size-exclusion chromatography (SEC) aggregation assay, SOD1^WT
# Type: biochemical
# Conditions: PB 30X, reducing conditions
# Method: Fig 6 Aggregation studies of metallated and reduced SOD1^WT and SOD1^A4V on treatment with PB. ThT fluorescence was monitored during the co-incubation of metallated SOD1^WT (50 μM) (a) or SOD1^A4V (50 μM) (b) with PB at 1:30 molar ratio at 37 °C with continuous shaking, under reduced conditions. The values were normalized to the maximal ThT intensity elicited by SOD1^WT or SOD1^A4V and fitted to a Boltzmann sigmoidal equation. The control and PB-treated species were compared to analyse the effects of PB on the aggregation of SOD1^WT and SOD1^A4V. Error bars indicate the standard deviation. Analytical SEC of metallated SOD1^WT (50 μM) (c) and SOD1^A4V (50 μM) (d) with PB were analyzed under reducing conditions before and after 24 hrs and 48 hrs incubation at 37 °C. The first peak eluting at the volume was denoted as oligomerized SOD1^WT/SOD1^A4V (L). The second, third, and fourth peaks were calculated as trimer (T), dimer (D), and monomer (M) species of SOD1^WT/SOD1^A4V running at 14.5 ml, 15.7 ml, and 16.5 ml, respectively. […] The monomer (M), dimer (D), trimer (T), and large aggregate (L) species are shown as green, purple, red, and black dotted lines, respectively. All the experiments were performed for n = 3 biological replicates. […]
# Fig 7 Aggregation studies of de-metallated and reduced SOD1^WT and SOD1^A4V on treatment with PB. ThT fluorescence was monitored during the co-incubation of de-metallated SOD1^WT (50 μM) (a) or SOD1^A4V (50 μM) (b) with PB at 1:30 molar ratio at 37 °C with continuous shaking, under reduced conditions. […] Analytical SEC of de-metallated SOD1^WT (50 μM) (a) and SOD1^A4V (50 μM) (b) with PB were analysed under reducing conditions before and after 24 hrs and 48 hrs incubation at 37 °C. […] The second, third, and fourth peaks were calculated as trimer (T), dimer (D), and monomer (M) species of SOD1^WT/SOD1^A4V running at 14.5 ml, 15.7 ml, and 16.5 ml, respectively. […]
# [1] = Metallated SOD1^WT 50 μM, 24 and 48 hrs at 37 °C
# T1 sequence (P00441 whole entry): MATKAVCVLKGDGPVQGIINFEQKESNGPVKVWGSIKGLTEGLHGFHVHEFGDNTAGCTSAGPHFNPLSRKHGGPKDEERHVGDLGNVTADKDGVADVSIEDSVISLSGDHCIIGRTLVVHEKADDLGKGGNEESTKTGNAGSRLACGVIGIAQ
smiles,measurement,setting,value
"CCCC[C@H](C)/C=C(C)/C=C/C(=O)O [PB, (S, 2E, 4E)-4,6-dimethyldeca-2,4-dienoic acid]",formation of trimer species (SEC),"De-metallated (EDTA) SOD1^WT 50 μM, 48hrs",insignificantly reduced compared to the control
same,"formation of higher aggregates (SEC, eluting at 9.2 ml)",[1],may induce the formation of higher aggregates in a time-dependent manner
same,toxic trimer population (SEC),[1],time-dependent alleviation of toxic trimer population
